From US7332504B2, “Heterocyclic substituted aminoazacycles useful as central nervous system agents” (Abbott Laboratories, priority 1999, dated 2008)
Where a name gives a salt, the structure may show the parent alone.

Assays:
mouse hot plate paradigm = test: Mouse hot plate paradigm (analgesia); assay type: in vivo; conditions: ip, 0.5 h, mice, intraperitoneal, dosed 30 minutes prior to testing, hot plate 55° C., increase in tenth jump latency relative to control, read-out: minimally effective dose (MED)
Method: An in vivo protocol was utilized to determine the effectiveness of nicotinic acetylcholine receptor ligands as analgesic agents in the mouse hot plate paradigm.
Separate groups of mice, (n=8/group) were utilized for each dose group. All drugs were administered by the intraperitoneal route of administration. Test drugs were dissolved in water to make a 6.2 mM stock solution. Animals were dosed with this solution (10 mL/kg body weight) for a 62 micromol/kg dose. Lower doses were administered similarly, following serial dilution of the stock solution in half-log increments. Animals were dosed 30 minutes prior to testing in the hot plate. The hot-plate utilized was an automated analgesia monitor (Model #AHP16AN, Omnitech Electronics, Inc. of Columbus, Ohio). The temperature of the hot plate was maintained at 55° C. and a cut-off time of 180 seconds was utilized. Latency until the tenth jump was recoreded as the dependent measure. An increase in the tenth jump latency relative to the control was considered an effect.

[1] = target: T1, neuronal nicotinic acetylcholine receptors (Rattus norvegicus, UniProt P09483+P12390); test: Binding of [3H]-cytisine to neuronal nicotinic acetylcholine receptors, crude synaptic membranes from whole rat brain
T1 construct: crude synaptic membrane preparations from whole rat brain; from tissue; host or cells: whole rat brain, crude synaptic membranes
T1 sequence (P09483 31-630): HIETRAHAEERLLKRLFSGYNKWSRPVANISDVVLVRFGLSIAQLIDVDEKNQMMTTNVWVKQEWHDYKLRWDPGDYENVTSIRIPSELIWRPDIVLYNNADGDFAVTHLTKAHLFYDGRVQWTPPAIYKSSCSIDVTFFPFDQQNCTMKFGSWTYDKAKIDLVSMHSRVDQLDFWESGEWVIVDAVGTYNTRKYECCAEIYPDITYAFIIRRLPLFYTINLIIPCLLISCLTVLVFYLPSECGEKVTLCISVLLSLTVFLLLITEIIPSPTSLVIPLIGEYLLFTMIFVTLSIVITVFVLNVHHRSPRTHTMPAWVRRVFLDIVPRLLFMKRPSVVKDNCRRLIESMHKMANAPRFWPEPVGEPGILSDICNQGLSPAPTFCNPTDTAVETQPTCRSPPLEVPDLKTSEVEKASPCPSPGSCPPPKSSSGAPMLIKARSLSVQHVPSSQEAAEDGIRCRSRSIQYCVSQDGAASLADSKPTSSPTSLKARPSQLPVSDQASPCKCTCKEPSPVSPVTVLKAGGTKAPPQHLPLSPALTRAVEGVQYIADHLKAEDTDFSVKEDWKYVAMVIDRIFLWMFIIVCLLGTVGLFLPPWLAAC
T1 sequence (P12390 25-500): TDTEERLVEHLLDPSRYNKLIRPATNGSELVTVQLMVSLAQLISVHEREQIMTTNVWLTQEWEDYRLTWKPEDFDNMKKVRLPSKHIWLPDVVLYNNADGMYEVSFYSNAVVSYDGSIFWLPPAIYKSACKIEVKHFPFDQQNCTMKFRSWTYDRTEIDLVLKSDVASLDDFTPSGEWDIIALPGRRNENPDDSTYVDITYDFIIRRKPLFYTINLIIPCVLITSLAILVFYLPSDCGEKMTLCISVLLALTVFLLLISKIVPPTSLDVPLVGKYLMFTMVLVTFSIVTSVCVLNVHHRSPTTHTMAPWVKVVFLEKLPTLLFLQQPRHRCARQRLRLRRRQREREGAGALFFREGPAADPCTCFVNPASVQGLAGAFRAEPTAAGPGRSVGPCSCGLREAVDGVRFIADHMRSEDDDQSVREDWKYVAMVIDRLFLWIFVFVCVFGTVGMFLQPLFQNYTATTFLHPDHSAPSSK
Method: The In Vitro protocols for determination of nicotinic acetylcholine channel receptor binding potencies of ligands were determined as follows.
Binding of [^3H]-cytisine ([^3 H]-CYT) to neuronal nicotinic acetylcholine receptors was accomplished using crude synaptic membrane preparations from whole rat brain (Pabreza et al., Molecular Pharmacol., 1990, 39:9). Washed membranes were stored at —80° C. prior to use. Frozen aliquots were slowly thawed and resuspended in 20 volumes of buffer (containing: 120 mM NaCl, 5 mM KCl, 2 mM MgCl2, 2 mM CaCl2 and 50 mM Tris-Cl, pH 7.4 @4° C.). After centrifuging at 20,000×g for 15 minutes, the pellets were resuspended in 30 volumes of buffer.
The test compounds were dissolved in water to make 10 mM stock solutions. Each solution was then diluted (1:100) with buffer (as above) and further taken through seven serial log dilutions of produce test solution from 10^−5 to 10^−11 M.
Homogenate (containing 125-150 μg protein) was added to triplicate tubes containing the range of concentrations of test compound described above and [^3H]-CYT (1.25 nM) in a final volume of 500 μL. Samples were incubated for 60 minutes at 4° C., then rapidly filtered through Whatman GF/B filters presoaked in 0.5% polyethyleneimine using 3×4 mL of ice-cold buffer. The filter are counted in 4 mL of Ecolume® (ICN). Nonspecific binding was determined in the presence of 10 μM (−)-nicotine and values were expressed as a percentage of total binding. IC50 values were determined with the RS-1 (BBN) nonlinear least squares curve-fitting program and IC50 values were converted to Ki values using the Cheng and Prusoff correction ([…].

SMILES: N[C@H]1CCN(c2cncc([N+](=O)[O-])c2)C1 (as salt: fumarate) [Example 29, (3S)-1-(5-nitro-3-pyridinyl)pyrrolidinylamine fumarate]
- melting point: 213 to 214 °C

SMILES: CN[C@@H]1CCN(c2cncc([N+](=O)[O-])c2)C1 (as salt: fumarate) [Example 32, N-methyl-N-[(3R)-1-(5-nitro-3-pyridinyl)pyrrolidinyl]amine fumarate]
- melting point: 184 to 185 °C

SMILES: N[C@H]1CCCN(c2ccc(Cl)nc2)C1 (as salt: benzenesulfonate) [Example 45, (3S)-1-(6-chloro-3-pyridinyl)piperidinylamine bis(4-methylbenzenesulfonate)]
- melting point: 182 to 184 °C

SMILES: CN[C@@H]1CCN(c2cncc(C(F)(F)F)c2)C1 (as salt: hydrochloride) [Example 12, N-methyl-N-{(3R)-1-[5-(trifluoromethyl)-3-pyridinyl]pyrrolidinyl}amine hydrochloride]
- melting point: 265 °C (dec.)

SMILES: N[C@@H]1CCN(c2cncc(C(F)(F)F)c2)C1 (as salt: hydrochloride) [Example 11, (3R)-1-[5-(trifluoromethyl)-3-pyridinyl]pyrrolidinylamine dihydrochloride]
- melting point: 234 to 235 °C

SMILES: CN[C@H]1CCCN(c2cnc(Cl)c(C)c2)C1.Cl [Example 49, N-[(3S)-1-(6-chloro-5-methyl-3-pyridinyl)piperidin-3-yl]-N-methylamine hydrochloride]
- minimal effective dose (mouse hot plate paradigm): 62 µmol/kg
- Ki [1]: 4.8 nM
- melting point: 75 to 77 °C

SMILES: CN[C@H]1CCCN(c2ccc(Cl)nc2)C1 (as salt: hydrochloride) [Example 46, N-[(3S)-1-(6-chloro-3-pyridinyl)piperidin-3-yl]-N-methylamine dihydrochloride]
- melting point: 120 to 122 °C

SMILES: N[C@H]1CCN(c2ccc(Cl)nc2)C1 (as salt: hydrochloride) [Example 2, (3S)-1-(6-chloro-3-pyridinyl)pyrrolidinylamine dihydrochloride]
- melting point: > 250 °C

SMILES: N[C@H]1CCCN(c2cccnc2)C1 (as salt: benzenesulfonate) [Example 41, (3S)-1-(3-pyridinyl)piperidinylamine bis(4-methylbenzenesulfonate)]
- melting point: 64 to 66 °C

SMILES: CN[C@H]1CCN(c2ccc(Cl)nc2)C1 (as salt: hydrochloride) [Example 1, N-[(3S)-1-(6-chloro-3-pyridinyl)pyrrolidinyl]-N-methylamine hydrochloride]
- melting point: > 250 °C

SMILES: CN[C@@H]1CCCN(c2ccc(Cl)nc2)C1.Cl.Cl [Example 48, N-[(3R)-1-(6-chloro-3-pyridinyl)piperidin-3-yl]-N-methylamine dihydrochloride]
- Ki [1]: 166 nM
- melting point: 103 to 105 °C
